Data as given in patent US11117892B2, “Pyrrolo-pyridine derivative compound, method for preparing same, and pharmaceutical composition containing same as active ingredient for prevention or treatment of protein kinase-related diseases” (DAEGU-GYEONGBUK MEDICAL INNOVATION FOUNDATION, priority 2017, dated 2021).

target: T1, DYRK1A (Homo sapiens (Human), UniProt Q13627); assay: DYRK1A kinase inhibition, 33P-ATP filter-binding method; type: biochemical; conditions: IC50 grade; head prints μM, key nM
Experimental: Particularly, a substrate was added to a basic reaction buffer (20 mM Hepes (pH 7.5), 10 mM MgCl2, 1 mM EGTA, 0.02% Brij35, 0.02 mg/ml BSA, 0.1 mM Na3VO4, 2 mM DTT, 1% DMSO), to which cofactors necessary for the reaction were added. Then, DYRK1A kinase was added thereto, followed by mixing well. Each compound of Examples was added thereto by using acoustic technology (Echo550; nanoliter range). The mixture was left at room temperature for 20 minutes and then ^33P-ATP (specific activity 10 mCi/ml) was added to initiate the reaction. After reacting at room temperature for 2 hours, spotting was performed on P81 exchange paper. Upon completion of the reaction, kinase activity was detected using a filter-binding method.

Structure (SMILES) | IC50
CNc1cc(Nc2ccc(C(=O)N3CCOCC3)cc2OC)nc2[nH]cc(C#N)c12 [Example 1, 6-((2-methoxy-4-(morpholine-4-carbonyl)phenyl)amino)-4-(methylamino)-1H-pyrrolo[2,3-b]pyridine-3-carbonitrile] | > 0.1 µM
CCNc1cc(Nc2ccc(C(=O)N3CCOCC3)cc2OC)nc2[nH]cc(C#N)c12 [Example 2, 4-(ethylamino)-6-((2-methoxy-4-(morpholine-4-carbonyl)phenyl)amino)-1H-pyrrolo[2,3-b]pyridine-3-carbonitrile] | < 0.01 µM
COCCNc1cc(Nc2ccc(C(=O)N3CCOCC3)cc2OC)nc2[nH]cc(C#N)c12 [Example 4, 6-((2-methoxy-4-(morpholine-4-carbonyl)phenyl)amino)-4-((2-methoxyethyl)amino)-1H-pyrrolo[2,3-b]pyridine-3-carbonitrile] | > 0.1 µM
COCCNc1cc(Nc2cc(OC)c(OC)c(OC)c2)nc2[nH]cc(C#N)c12 [Example 5, 4-((2-methoxyethyl)amino)-6-((3,4,5-trimethoxyphenyl)amino)-1H-pyrrolo[2,3-b]pyridine-3-carbonitrile] | 0.01 to 0.1 µM
CCCNc1cc(Nc2ccc(C(=O)N3CCOCC3)cc2OC)nc2[nH]cc(C#N)c12 [Example 10, 6-((2-methoxy-4-(morpholine-4-carbonyl)phenyl)amino)-4-(propylamino)-1H-pyrrolo[2,3-b]pyridine-3-carbonitrile] | < 0.01 µM
CNc1cc(Nc2ccc(C(=O)N3CCO[C@@H](C)C3)cc2OC)nc2[nH]cc(C#N)c12 [Example 23, (S)-6-((2-methoxy-4-(2-methylmorpholine-4-carbonyl)phenyl)amino)-4-(methylamino)-1H-pyrrolo[2,3-b]pyridine-3-carbonitrile] | > 0.1 µM
CCNc1cc(Nc2ccc(C(=O)N3CCO[C@@H](C)C3)cc2OC)nc2[nH]cc(C#N)c12 [Example 27, (S)-4-(ethylamino)-6-((2-methoxy-4-(2-methylmorpholine-4-carbonyl)phenyl)amino)-1H-W pyrrolo[2,3-b]pyridine-3-carbonitrile] | > 0.1 µM
CCNc1cc(Nc2cc(OC)c(OC)c(OC)c2)nc2[nH]cc(C(F)(F)F)c12 [Example 53, N^4-ethyl-3-(trifluoromethyl)-N^6-(3,4,5-trimethoxyphenyl)-1H-pyrrolo[2,3-b]pyridine-4,6-diamine] | 0.01 to 0.1 µM
CCNc1cc(Nc2ccc(C(=O)N3CCOCC3)cc2OC)nc2[nH]cc(C(F)(F)F)c12 [Example 56, (4-((4-(ethylamino)-3-(trifluoromethyl)-1H-pyrrolo[2,3-b]pyridin-6-yl)amino)-3-methoxyphenyl) (morpholino)methanone] | < 0.01 µM
CNc1cc(Nc2ccc(C(=O)N3CCC(N4CCOCC4)CC3)cc2OC)nc2[nH]cc(C(F)(F)F)c12 [Example 59, (3-methoxy-4-((4-(methylamino)-3-(trifluoromethyl)-1H-pyrrolo[2,3-b]pyridin-6-yl)amino)phenyl) (4-morpholinopiperidin-1-yl)methanone] | < 0.01 µM
CNc1cc(Nc2cc(F)c(C(=O)N3CCN(C)CC3)cc2OC)nc2[nH]cc(C(F)(F)F)c12 [Example 60, (2-fluoro-5-methoxy-4-((4-(methylamino)-3-(trifluoromethyl)-1H-pyrrolo[2,3-b]pyridin-6-yl)amino)phenyl) (4-methylpiperazin-1-yl)methanone] | 0.01 to 0.1 µM
CNc1cc(Nc2ccc(C(=O)N3CCC(N4CCN(C)CC4)CC3)cc2OC)nc2[nH]cc(C(F)(F)F)c12 [Example 61, (3-methoxy-4-((4-(methylamino)-3-(trifluoromethyl)-1H-pyrrolo[2,3-b]pyridin-6-yl)amino)phenyl) (4-(4-methylpiperazin-1-yl)piperidin-1-yl)methanone] | < 0.01 µM
CNc1cc(Nc2ccc(C(=O)N3CCN(C)CC3)cc2OC)nc2[nH]cc(C(F)(F)F)c12 [Example 63, (3-methoxy-4-((4-(methylamino)-3-(trifluoromethyl)-1H-pyrrolo[2,3-b]pyridin-6-yl)amino)phenyl) (4-methylpiperazin-1-yl)methanone] | < 0.01 µM
COCCNc1cc(Nc2ccc(C(=O)N3CCC(N4CCOCC4)CC3)cc2OC)nc2[nH]cc(C(F)(F)F)c12 [Example 65, (3-methoxy-4-((4-((2-methoxyethyl)amino)-3-(trifluoromethyl)-1H-pyrrolo[2,3-b]pyridin-6-yl)amino)phenyl) (4-morpholinopiperidin-1-yl)methanone] | < 0.01 µM
COCCNc1cc(Nc2ccc(C(=O)N3CCC(N4CCN(C)CC4)CC3)cc2OC)nc2[nH]cc(C(F)(F)F)c12 [Example 67] | < 0.01 µM

test system: Drosophila over-expressing minibrain specifically in wings; assay: wing vein developmental abnormality, Drosophila over-expressing minibrain specifically in wings; type: in vivo; conditions: medium supplemented with compound at 10 μM
From the text: To confirm the DYRK1A inhibitory effect of the compound according to the present invention in vivo, wings of the Drosophila model over-expressing minibrain gene specifically in wings were observed. First, in order to produce Drosophila over-expressing minibrain specifically in wings, the UAS-Minibrain transformed Drosophila was mated with the wing specific promoter MS1096-Gal4 transformed Drosophila, resulting in the production of F1 generation. Next, the effect of improving wing defects was confirmed to verify the DYRK1A inhibitory effect of the compound according to the present invention using the Drosophila DYRK1A/minibrain inhibitor discovery model. A medium supplemented with the compound at the concentration of 10 μM was prepared, in which embryos of Drosophila over-expressing minibrain specifically in wings were raised, followed by investigation of wing phenotype.

Structure (SMILES) | inhibition of the wing vein developmental abnormality
CNc1cc(Nc2ccc(C(=O)N3CCOCC3)cc2OC)nc2[nH]cc(C(F)(F)F)c12 [Example 58, (3-methoxy-4-((4-(methylamino)-3-(trifluoromethyl)-1H-pyrrolo[2,3-b]pyridin-6-yl)amino)phenyl) (morpholino)methanone] | 47.9%
CNc1cc(Nc2ccc(N3CCN(C)CC3)cc2OC)nc2[nH]cc(C(F)(F)F)c12 [Example 62, N^6-(2-methoxy-4-(4-methylpiperazin-1-yl)phenyl)-N^4-methyl-3-(trifluoromethyl)-1H-pyrrolo[2,3-b]pyridine-4,6-diamine] | 47.7%
CNc1cc(Nc2ccc(C(=O)N3CCN(C)CC3)cc2OC)nc2[nH]cc(C(F)(F)F)c12 [Example 63, (3-methoxy-4-((4-(methylamino)-3-(trifluoromethyl)-1H-pyrrolo[2,3-b]pyridin-6-yl)amino)phenyl) (4-methylpiperazin-1-yl)methanone] | 43.8%

target: T1, DYRK1A; assay: DYRK1A kinase binding assay using LanthaScreen Eu; conditions: not given

Structure (SMILES) | IC50
COCCNc1cc(Nc2ccc(C(=O)N3CCOCC3)cc2OC)nc2[nH]cc(C(F)(F)F)c12 [Example 64, (3-methoxy-4-((4-((2-methoxyethyl)amino)-3-(trifluoromethyl)-1H-pyrrolo[2,3-b]pyridine-6yl)amino)phenyl) (morpholino)methanone] | 10 to 100 nM
COCCNc1cc(Nc2ccc(C(=O)N3CCN(C)CC3)cc2OC)nc2[nH]cc(C(F)(F)F)c12 [Example 66, (3-methoxy-4-((4-((2-methoxyethyl)amino)-3-(trifluoromethyl)-1H-pyrrolo[2,3-b]pyridin-6-yl)amino)phenyl) (4-methylpiperazin-1-yl)-methanone] | 10 to 100 nM
CCNc1cc(Nc2ccc(C(=O)N3CCC(N4CCN(C)CC4)CC3)cc2OC)nc2[nH]cc(C(F)(F)F)c12 [Example 70] | 10 to 100 nM
COCCNc1cc(Nc2cc(F)c(C(=O)NC3CCN(C)CC3)cc2OC)nc2[nH]cc(C(F)(F)F)c12 [Example 73, 2-fluoro-5-methoxy-4-((4-((2-methoxyethyl)amino)-3-(trifluoromethyl)-1H-pyrrolo[2,3-b]pyridin-6-yl)amino) (1-methylpiperidin-4-yl)benzamide] | 10 to 100 nM
CCNc1cc(Nc2cc(F)c(C(=O)NC3CCN(C(C)C)CC3)cc2OC)nc2[nH]cc(C(F)(F)F)c12 [Example 74] | 10 to 100 nM
COCCN(C)c1cc(Nc2ccc(C(=O)N3CCOCC3)cc2OC)nc2[nH]cc(C(F)(F)F)c12 [Example 87] | 10 to 100 nM
COCCN(C)c1cc(Nc2ccc(C(=O)N3CCC(N4CCOCC4)CC3)cc2OC)nc2[nH]cc(C(F)(F)F)c12 [Example 88] | 10 to 100 nM
COc1cc(C(=O)N2CCC(N3CCOCC3)CC2)ccc1Nc1cc(NC(C)C)c2c(C(F)(F)F)c[nH]c2n1 [Example 90, (4-(4-(isopropylamino)-3-(trifluoromethyl)-1H-pyrrolo[2,3-b]pyridin-6-ylamino)-3-methoxyphenyl) (4-morpholinopiperidin-1-yl)methanone] | 10 to 100 nM
COc1cc(C(=O)N2CCC(N3CCOCC3)CC2)ccc1Nc1cc(N[C@@H](CO)C(C)C)c2c(C(F)(F)F)c[nH]c2n1 [Example 91] | 10 to 100 nM
COc1cc(C(=O)N2CCOCC2)ccc1Nc1cc(NC2CC2)c2c(C(F)(F)F)c[nH]c2n1 [Example 95, (4-((4-(cyclopropylamino)-3-(trifluoromethyl)-1H-pyrrolo[2,3-b]pyridin-6-yl)amino)-3-methoxyphenyl) (morpholino) methanone] | 10 to 100 nM

test system: mouse pancreatic β-cell; assay: mouse pancreatic β-cell proliferation (Ki-67/insulin staining); type: cell-based; conditions: mouse pancreatic β-cells cultured with compound for 72 hours
Experimental: It is known that when human β-cells are treated with harmine that inhibits DYRK1A, the proliferation of β-cells is promoted by increasing the transcription factor activity by inhibiting the phosphorylation of NFAT known as a phosphorylation substrate of DYRK1A.
Particularly, pancreatic Langerhans islet tissues were extracted from the mouse at 8 weeks old, followed by culture in RPMI1640 medium supplemented with 10% FCS (fetal calves serum), 5.5 mM glucose and 1% penicillin-streptomycin for 24 hours.
Next, in order to separate β-cells as single cells from the Langerhans islet, cells were washed twice with PBS, followed by centrifugation. The collected cells were left in the medium supplemented with 1 mg/ml of trypsin for 10 minutes at 37° C. The cells were shaken using a pipette every 10 seconds for 5 minutes. Trypsin reaction was terminated by adding RPMI1640 containing 10% FCS (fetal calves serum), 5.5 mM glucose and 1% penicillin-streptomycin, followed by centrifugation to collect single cells.
Then, the single cells were loaded on the laminin-coated cover glass and stabilized for 24 hours. The cells were cultured in the medium containing the compound of the present invention for 72 hours. […] The cells double-stained with Ki-67/insulin were counted under Olympus F-1000 confocal fluorescence microscope to investigate cell proliferation.

Structure (SMILES) | cell proliferation
COc1ccc2c(c1)[nH]c1c(C)nccc12 [harmine, reference compound] | active
